# From ChEMBL document CHEMBL4602697 (J Med Chem, 2020)
# Legend:
# [1] = molecular target: Muscarinic acetylcholine receptor M3 (Rattus norvegicus, UniProt P08483); experiment: Displacement of [3H]-NMS from Wistar rat salivary gland muscarinic M3 receptor
# [2] = molecular target: T1, Muscarinic acetylcholine receptor M2 (Rattus norvegicus, UniProt P10980); experiment: Displacement of [3H]-QNB from Wistar rat heart muscarinic M2 receptor
# T1 sequence (P10980 whole entry): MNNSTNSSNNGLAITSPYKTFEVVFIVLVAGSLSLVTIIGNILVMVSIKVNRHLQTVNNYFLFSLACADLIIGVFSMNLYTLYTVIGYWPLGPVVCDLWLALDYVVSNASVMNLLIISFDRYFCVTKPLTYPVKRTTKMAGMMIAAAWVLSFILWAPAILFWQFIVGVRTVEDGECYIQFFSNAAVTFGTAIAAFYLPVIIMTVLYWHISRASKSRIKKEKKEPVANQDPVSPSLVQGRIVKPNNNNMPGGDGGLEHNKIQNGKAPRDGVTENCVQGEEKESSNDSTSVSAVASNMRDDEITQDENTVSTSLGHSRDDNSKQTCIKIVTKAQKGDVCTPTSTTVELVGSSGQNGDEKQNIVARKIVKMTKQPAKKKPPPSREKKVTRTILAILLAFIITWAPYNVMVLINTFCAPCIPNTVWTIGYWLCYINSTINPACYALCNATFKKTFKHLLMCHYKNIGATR
# [3] = molecular target: Muscarinic receptor M2 and M3 (Rattus norvegicus) (UniProt P08483+P10980); experiment: Ratio of Ki for displacement of [3H]-QNB from Wistar rat heart muscarinic M2 receptor to Ki for displacement of [3H]-NMS from Wistar rat salivary gland muscarinic M3 receptor; type: protein assay
# Chain of Muscarinic receptor M2 and M3 (Rattus norvegicus) (P08483 whole entry, looked up, one chain of several): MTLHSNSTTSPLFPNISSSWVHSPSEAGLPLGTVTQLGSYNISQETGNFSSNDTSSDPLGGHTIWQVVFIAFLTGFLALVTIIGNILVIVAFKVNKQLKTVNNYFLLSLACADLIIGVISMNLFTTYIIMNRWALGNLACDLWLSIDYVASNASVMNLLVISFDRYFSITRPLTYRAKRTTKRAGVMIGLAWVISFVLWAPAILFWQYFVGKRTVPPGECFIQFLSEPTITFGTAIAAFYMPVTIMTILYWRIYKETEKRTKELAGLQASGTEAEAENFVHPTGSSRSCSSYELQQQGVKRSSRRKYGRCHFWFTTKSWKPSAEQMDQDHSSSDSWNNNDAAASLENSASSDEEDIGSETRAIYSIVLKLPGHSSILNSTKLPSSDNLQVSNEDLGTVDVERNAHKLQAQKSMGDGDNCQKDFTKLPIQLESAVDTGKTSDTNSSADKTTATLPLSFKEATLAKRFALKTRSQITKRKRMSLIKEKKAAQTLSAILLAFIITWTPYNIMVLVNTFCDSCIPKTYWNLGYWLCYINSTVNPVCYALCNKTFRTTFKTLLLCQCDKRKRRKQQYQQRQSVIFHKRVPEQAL
# [4] = molecular target: T2, Muscarinic acetylcholine receptor M1 (Rattus norvegicus, UniProt P08482); experiment: Displacement of [3H]pirenzepin from Wistar rat cortex muscarinic M1 receptor
# T2 sequence (P08482 whole entry): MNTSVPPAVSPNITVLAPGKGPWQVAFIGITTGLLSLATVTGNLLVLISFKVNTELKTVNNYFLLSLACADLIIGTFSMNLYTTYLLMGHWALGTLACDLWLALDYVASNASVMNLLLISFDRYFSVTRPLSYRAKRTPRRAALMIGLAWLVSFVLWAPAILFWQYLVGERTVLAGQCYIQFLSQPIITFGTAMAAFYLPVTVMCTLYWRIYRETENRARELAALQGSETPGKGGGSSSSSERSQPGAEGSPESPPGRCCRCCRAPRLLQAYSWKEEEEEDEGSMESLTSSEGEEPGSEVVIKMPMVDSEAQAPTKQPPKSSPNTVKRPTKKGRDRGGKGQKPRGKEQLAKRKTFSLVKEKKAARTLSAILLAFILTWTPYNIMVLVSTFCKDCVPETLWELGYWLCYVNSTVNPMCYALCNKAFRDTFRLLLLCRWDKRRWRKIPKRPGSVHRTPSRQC
# Rattus norvegicus = species: Rattus norvegicus; experiment: Ratio of Ki for displacement of [3H]pirenzepin from Wistar rat cortex muscarinic M1 receptor to Ki for displacement of [3H]-NMS from Wistar rat salivary gland muscarinic M3 receptor
# [5] = Metabolic stability in Sprague-Dawley rat liver microsomes assessed as parent compound remaining at 20 uM measured for 120 mins by HPLC/MS analysis relative to control; type: ADME, Microsome; details: read-out: Stability
# [6] = Permeability across basolateral to apical side in human Caco2 cells coexpressing Pgp at 5 uM in presence of P-gp inhibitor valspodar measured for 3 hrs by UPLC/MS analysis; type: ADME, cell-based; details: caco-2, 3 h
# [7] = Permeability across apical to basolateral side in human Caco2 cells coexpressing Pgp at 5 uM measured for 3 hrs by UPLC/MS analysis relative to control; type: ADME, cell-based; details: caco-2, 3 h
# [8] = Permeability across basolateral to apical side in human Caco2 cells coexpressing Pgp at 5 uM measured for 3 hrs by UPLC/MS analysis relative to control; type: ADME, cell-based; details: caco-2, 3 h
# [9] = Permeability across apical to basolateral side in human Caco2 cells coexpressing Pgp at 5 uM in presence of P-gp inhibitor valspodar measured for 3 hrs by UPLC/MS analysis; type: ADME, cell-based; details: caco-2, 3 h
# Chain of Muscarinic acetylcholine receptor M3 (P08483 whole entry): as the sequence (P08483 whole entry, looked up, one chain of several) above
smiles,measurement,setting,value
O=C(Nc1ccccc1-c1ccccc1)OC1CCNCC1,Ki,[1],27 nM
same,Ki,[2],270 nM
same,Ratio Ki,[3],10
same,Ki,[4],32 nM
same,Ratio Ki,Rattus norvegicus,1.2
C[N+]12CCC(CC1)[C@@H](OC(=O)Nc1ccc(F)cc1-c1cccc(Cl)c1)C2,"remaining at 2 h, 20 µM",[5],65%
O=C(Nc1ccccc1-c1ccccc1)O[C@H]1CN2CCC1CC2,Ki,[1],0.47 nM
same,Ki,[2],7.6 nM
same,Ki,[4],0.65 nM
O=C(Nc1ccc(F)cc1-c1ccc(F)c(Cl)c1)OCC1CCNCC1,"remaining at 2 h, 20 µM",[5],74%
O=C(Nc1ccc(F)cc1-c1cccc(Cl)c1)OCC1CCNCC1,"remaining at 2 h, 20 µM",[5],53%
C[N+]12CCC(CC1)[C@@H](OC(=O)Nc1ccc(F)cc1-c1ccc(F)c(Cl)c1)C2,"remaining at 2 h, 20 µM",[5],63%
C[C@H]1O[C@@H](O[C@H]2[C@@H](O)C[C@H](O[C@H]3[C@@H](O)C[C@H](O[C@H]4CC[C@@]5(C)[C@H](CC[C@@H]6[C@@H]5C[C@@H](O)[C@]5(C)[C@@H](C7=CC(=O)OC7)CC[C@]65O)C4)O[C@@H]3C)O[C@@H]2C)C[C@H](O)[C@@H]1O [DIGOXIN],permeability,[6],10.5%
same,permeability,[7],6.7%
same,permeability,[8],19.9%
same,permeability,[9],10.2%
